These compounds were tested against T1, recombinant human liver glycogen phosphorylase (Homo sapiens, UniProt P06737) (assay: Measuring liver glycogen phosphorylase activity (forward reaction system, NADPH absorbance at 340 nm)). Conditions: compound concentration 100 nmol (in parentheses).
T1 construct: made in house; host or cells: Sf9 insect cells (crude homogenate, diluted, used as the enzyme solution)
T1 sequence (P06737 1-847): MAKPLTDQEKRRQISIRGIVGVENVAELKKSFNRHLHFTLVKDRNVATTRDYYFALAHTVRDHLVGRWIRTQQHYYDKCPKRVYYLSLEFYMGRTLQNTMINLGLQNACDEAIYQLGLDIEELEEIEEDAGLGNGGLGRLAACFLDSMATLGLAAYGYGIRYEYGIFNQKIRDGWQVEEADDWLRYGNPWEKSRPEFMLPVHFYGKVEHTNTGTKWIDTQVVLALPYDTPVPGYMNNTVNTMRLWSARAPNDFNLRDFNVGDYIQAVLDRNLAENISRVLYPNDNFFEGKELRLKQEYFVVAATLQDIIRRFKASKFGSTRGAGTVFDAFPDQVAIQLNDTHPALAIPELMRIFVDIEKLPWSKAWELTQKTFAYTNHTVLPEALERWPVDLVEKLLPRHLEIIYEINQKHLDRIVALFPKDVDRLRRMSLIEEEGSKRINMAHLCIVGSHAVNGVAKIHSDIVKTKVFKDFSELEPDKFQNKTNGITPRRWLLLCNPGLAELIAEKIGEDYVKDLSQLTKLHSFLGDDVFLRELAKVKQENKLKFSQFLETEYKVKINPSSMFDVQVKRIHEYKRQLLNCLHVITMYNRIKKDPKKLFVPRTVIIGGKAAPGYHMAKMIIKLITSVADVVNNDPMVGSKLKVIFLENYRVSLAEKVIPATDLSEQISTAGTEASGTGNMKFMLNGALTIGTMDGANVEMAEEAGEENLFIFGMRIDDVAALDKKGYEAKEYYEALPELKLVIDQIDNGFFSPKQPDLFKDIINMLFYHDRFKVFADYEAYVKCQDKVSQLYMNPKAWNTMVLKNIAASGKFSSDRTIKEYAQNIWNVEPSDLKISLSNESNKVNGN
Format: biochemical
Outline: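 Sf9 homogenate expressing the enzyme, in pH 6.8 BES/EDTA, with glycogen and phosphate substrate plus glucose, coupled via phosphoglucomutase/G6PDH to NADPH formation. A340 change over 75 min at room temperature, blank-corrected; IC50 linearly interpolated between the two concentrations bracketing 50% inhibition versus 1% DMSO control.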
In the case of `O=C(Nc1cccc2ncccc12)c1cc(NC(=O)c2cc(F)c(F)cc2Cl)[nH]n1` [Example 5-36], the “inhibition rate (%) at a certain concentration” value (from here on “inhibition rate (%)”) is reported as 17.8% (100). With `O=C(Nc1cccc2cccnc12)c1cc(NC(=O)c2cc(F)c(F)cc2Cl)[nH]n1` [Example 5-37] the “inhibition rate (%)” value was 22.3% (100). With `O=C(Nc1cccc2cnccc12)c1cc(NC(=O)c2cc(F)c(F)cc2Cl)[nH]n1` [Example 5-38] the “inhibition rate (%)” value was 15.2% (100).

Same assay, conditions: compound concentration 100 nmol (in parentheses); read-out: inhibition rate (%) at a certain concentration
For `O=C(NCc1ccccc1)c1cc(NC(=O)c2ccncc2Cl)[nH]n1` [Example 4-44], the inhibition at 0.1 µM was 5.7%. With `CCCCN(C(=O)c1cc(NC(=O)c2cc(F)c(F)cc2Cl)[nH]n1)c1ccc(CC(=O)OCC)cc1` [Example 4-45] the inhibition at 0.1 µM was 5.9%. Compound `COCCN(C(=O)c1cc(NC(=O)c2cc(F)c(F)cc2Cl)[nH]n1)c1ccc(C(=O)OC)cc1` [Example 4-47] has an inhibition at 0.1 µM of 1.2%.

Same assay, conditions: compound concentration 300 nmol (in parentheses); read-out: inhibition rate (%) at a certain concentration
`Cc1ccc(Cl)cc1C(=O)Nc1cc(C(=O)NCc2ccccc2)n[nH]1` [Example 4-13] showed an inhibition at 0.3 µM of 38%. `COc1ccc(C(=O)Nc2cc(C(=O)NCc3ccccc3)n[nH]2)c(C)c1` [Example 4-14] showed an inhibition at 0.3 µM of 10.6%. In the case of `COc1ccc(F)cc1C(=O)Nc1cc(C(=O)NCc2ccccc2)n[nH]1` [Example 4-16], the inhibition at 0.3 µM is reported as 5.1%. `COc1ccc(Cl)cc1C(=O)Nc1cc(C(=O)NCc2ccccc2)n[nH]1` [Example 4-17] showed an inhibition at 0.3 µM of 1.1%. `Cc1ccc(F)c(C(=O)Nc2cc(C(=O)NCc3ccccc3)n[nH]2)c1` [Example 4-19] was tested, and the inhibition at 0.3 µM was 3.3%. Compound `O=C(NCc1ccccc1)c1cc(NC(=O)c2cc(Cl)ccc2F)[nH]n1` [Example 4-20] has an inhibition at 0.3 µM of 3.3%. With `O=C(NCc1ccccc1)c1cc(NC(=O)c2c(F)ccc(Cl)c2F)[nH]n1` [Example 4-21] the inhibition at 0.3 µM was 24.2%. `O=C(NCc1ccccc1)c1cc(NC(=O)c2ccc(F)cc2C(F)(F)F)[nH]n1` [Example 4-32] was tested, and the inhibition at 0.3 µM was 7.8%. `O=C(NCc1ccccc1)c1cc(NC(=O)c2cc(F)ccc2C(F)(F)F)[nH]n1` [Example 4-33] was tested, and the inhibition at 0.3 µM was 15.2%. For `Cc1ccc(C)c(C(=O)Nc2cc(C(=O)NCc3ccccc3)n[nH]2)c1` [Example 4-35], the inhibition at 0.3 µM was 9.7%. `O=C(NCc1ccccc1)c1cc(NC(=O)c2ccc(Cl)nc2Cl)[nH]n1` [Example 4-39] gave an inhibition at 0.3 µM of 5.3%. `CCCCN(C(=O)c1cc(NC(=O)c2cc(F)c(F)cc2Cl)[nH]n1)c1ccc(C(=O)OCC)cc1` [Example 4-40] gave an inhibition at 0.3 µM of 3.6%. For `Cc1ncccc1C(=O)Nc1cc(C(=O)NCc2ccccc2)n[nH]1` [Example 4-42], the inhibition at 0.3 µM was 8.5%. Compound `Cc1ccc(C(=O)Nc2cc(C(=O)NCc3ccccc3)n[nH]2)c(Cl)n1` [Example 4-43] has an inhibition at 0.3 µM of 3.8%.

Same assay, conditions: compound concentration 590 nmol (in parentheses); read-out: inhibition rate (%) at a certain concentration
Compound `CC(C)(NC(=O)c1cc(NC(=O)c2cc(F)c(F)cc2Cl)[nH]n1)c1ccccc1` [Example 4-10] has an inhibition at 0.59 µM of 50%.

Same assay, conditions: enzyme inhibitory activity with respect to liver glycogen phosphorylase; class symbols
With `CC(C)N(C(=O)c1cc(NC(=O)c2cc(F)c(F)cc2Cl)[nH]n1)c1ccccc1` [Example 4-3] the IC50 was 100 to 300 nM. With `O=C(O)CN(C(=O)c1cc(NC(=O)c2cc(F)c(F)cc2Cl)[nH]n1)c1ccccc1` [Example 4-5] the IC50 was 100 to 300 nM. `O=C(NCc1ccccc1)c1cc(NC(=O)c2ccc(F)cc2Cl)[nH]n1` [Example 4-6] showed an IC50 of 100 to 300 nM. Work on `O=C(NCc1ccccc1)c1cc(NC(=O)c2ccc(Cl)cc2Cl)[nH]n1` [Example 4-7] yielded an IC50 of 100 to 300 nM. In the case of `O=C(NCc1ccccc1)c1cc(NC(=O)c2cc(F)ccc2Cl)[nH]n1` [Example 4-8], the IC50 is reported as 100 to 300 nM. `O=C(Nc1cc(C(=O)N(CC(=O)N2CCCCC2)c2ccccc2)n[nH]1)c1cc(F)c(F)cc1Cl` [Example 4-11] showed an IC50 of less than 100 nM. For `Cc1ccc(F)cc1C(=O)Nc1cc(C(=O)NCc2ccccc2)n[nH]1` [Example 4-12], the IC50 was 100 to 300 nM. `Cc1cc(Cl)ccc1C(=O)Nc1cc(C(=O)NCc2ccccc2)n[nH]1` [Example 4-15] gave an IC50 of 100 to 300 nM. `CC(C)CN(C(=O)c1cc(NC(=O)c2cc(F)c(F)cc2Cl)[nH]n1)c1ccccc1` [Example 4-24] showed an IC50 of 100 to 300 nM. `COC(=O)CCN(C(=O)c1cc(NC(=O)c2cc(F)c(F)cc2Cl)[nH]n1)c1ccccc1` [Example 4-25] gave an IC50 of less than 100 nM. Work on `CCOC(=O)CCCN(C(=O)c1cc(NC(=O)c2cc(F)c(F)cc2Cl)[nH]n1)c1ccccc1` [Example 4-26] yielded an IC50 of less than 100 nM. With `O=C(O)CCN(C(=O)c1cc(NC(=O)c2cc(F)c(F)cc2Cl)[nH]n1)c1ccccc1` [Example 4-27] the IC50 was 100 to 300 nM. For `O=C(O)CCCN(C(=O)c1cc(NC(=O)c2cc(F)c(F)cc2Cl)[nH]n1)c1ccccc1` [Example 4-28], the IC50 was 100 to 300 nM. `O=C(NCCN1CCOCC1)c1ccc(CNC(=O)c2cc(NC(=O)c3cc(F)c(F)cc3Cl)[nH]n2)cc1` [Example 5-4] showed an IC50 of less than 100 nM. Compound `O=C(NN1CCOCC1)c1ccc(CNC(=O)c2cc(NC(=O)c3cc(F)c(F)cc3Cl)[nH]n2)cc1` [Example 5-5] has an IC50 of less than 100 nM. `O=C(O)CNC(=O)c1ccc(CNC(=O)c2cc(NC(=O)c3cc(F)c(F)cc3Cl)[nH]n2)cc1` [Example 5-6] showed an IC50 of less than 100 nM. For `O=C(O)CCNC(=O)c1ccc(CNC(=O)c2cc(NC(=O)c3cc(F)c(F)cc3Cl)[nH]n2)cc1` [Example 5-7], the IC50 was less than 100 nM. Work on `O=C(NCCN1CCOCC1)c1cccc(CNC(=O)c2cc(NC(=O)c3cc(F)c(F)cc3Cl)[nH]n2)c1` [Example 5-11] yielded an IC50 of less than 100 nM. With `NCc1ccnc(CNC(=O)c2cc(NC(=O)c3cc(F)c(F)cc3Cl)[nH]n2)c1` [Example 5-18] the IC50 was less than 100 nM. Compound `CN1CCN(c2ccc(CNC(=O)c3cc(NC(=O)c4cc(F)c(F)cc4Cl)[nH]n3)cn2)CC1` [Example 5-39] has an IC50 of less than 100 nM. Compound `CN(C)C1CCN(c2ccc(CNC(=O)c3cc(NC(=O)c4cc(F)c(F)cc4Cl)[nH]n3)cn2)CC1` [Example 5-40] has an IC50 of less than 100 nM.

Same assay, conditions: figure in brackets (100); read-out: IC50: % value given with (100)
`NC(=O)CNC(=O)c1cc(NC(=O)c2cc(F)c(F)cc2Cl)[nH]n1` [Example 6-1] showed an inhibition at 0.1 µM of 15.5%. `CN(C(=O)c1cc(NC(=O)c2cc(F)c(F)cc2Cl)[nH]n1)c1ccc(C(=N)NO)cc1` [Example 6-11] gave an inhibition at 0.1 µM of 2.1%. Work on `CN(C(=O)c1cc(NC(=O)c2cc(F)c(F)cc2Cl)[nH]n1)c1ccc(C(=O)OCOC(=O)C(C)(C)C)cc1` [Example 6-13] yielded an inhibition at 0.1 µM of 17.5%. Compound `COC(=S)ON=C(N)c1ccc(N(C)C(=O)c2cc(NC(=O)c3cc(F)c(F)cc3Cl)[nH]n2)cc1` [Example 6-14] has an inhibition at 0.1 µM of 20.1%. `CCOC(=O)c1csc(N(CC)C(=O)c2cc(NC(=O)c3cc(F)c(F)cc3Cl)[nH]n2)n1` [Example 6-18] gave an inhibition at 0.1 µM of 6.8%.

Same assay, conditions: figure in brackets (300); read-out: IC50 column: % value printed with (300)
Compound `CN(C(=O)c1cc(NC(=O)c2cc(F)c(Cl)cc2Cl)[nH]n1)c1ccc(C(N)=O)cc1` [Example 6-2] has an inhibition at 0.3 µM of 12.3%. With `CNC(=O)c1ccc(N(C)C(=O)c2cc(NC(=O)c3cc(F)c(Cl)cc3Cl)[nH]n2)cc1` [Example 6-3] the inhibition at 0.3 µM was 9.7%. In the case of `CN(C)C(=O)c1ccc(N(C)C(=O)c2cc(NC(=O)c3cc(F)c(Cl)cc3Cl)[nH]n2)cc1` [Example 6-4], the inhibition at 0.3 µM is reported as 46.8%. For `CN(C(=O)c1cc(NC(=O)c2cc(F)c(F)cc2Cl)[nH]n1)c1ccc(C#N)cc1` [Example 6-7], the inhibition at 0.3 µM was 12.9%. For `CN(C(=O)c1cc(NC(=O)c2cc(F)c(F)cc2Cl)[nH]n1)c1ccc(-c2nnc[nH]2)cc1` [Example 6-8], the inhibition at 0.3 µM was 11.7%. Compound `CN(C(=O)c1cc(NC(=O)c2cc(F)c(N=[N+]=[N-])cc2Cl)[nH]n1)c1ccc(C#N)cc1` [Example 6-9] has an inhibition at 0.3 µM of 5.5%.

Same assay, conditions: human liver glycogen phosphorylase; class symbol
`CN(C(=O)c1cc(NC(=O)c2cc(F)c(F)cc2Cl)[nH]n1)c1ccc(C(=O)NS(C)(=O)=O)cc1` [Example 6-5] showed an IC50 of less than 100 nM. `CN(C(=O)c1cc(NC(=O)c2cc(F)c(N=[N+]=[N-])cc2Cl)[nH]n1)c1ccc(-c2nnn[nH]2)cc1` [Example 6-10] gave an IC50 of 100 to 300 nM. `CN(C(=O)c1cc(NC(=O)c2cc(F)c(F)cc2Cl)[nH]n1)c1ccc(-c2noc(=S)[nH]2)cc1` [Example 6-15] was tested, and the IC50 was less than 100 nM. For `CS(=O)(=O)Nc1ccccc1CNC(=O)c1cc(NC(=O)c2cc(F)c(F)cc2Cl)[nH]n1` [Example 6-19], the IC50 was less than 100 nM. `CC(=O)Nc1ccccc1CNC(=O)c1cc(NC(=O)c2cc(F)c(F)cc2Cl)[nH]n1` [Example 6-20] was tested, and the IC50 was less than 100 nM. `CC(=Nc1ccccc1CNC(=O)c1cc(NC(=O)c2cc(F)c(F)cc2Cl)[nH]n1)N(C)C` [Example 6-24] gave an IC50 of less than 100 nM. Compound `CC(=Nc1cccc(CNC(=O)c2cc(NC(=O)c3cc(F)c(F)cc3Cl)[nH]n2)c1)N(C)C` [Example 6-25] has an IC50 of less than 100 nM. In the case of `CC(=Nc1ccc(CNC(=O)c2cc(NC(=O)c3cc(F)c(F)cc3Cl)[nH]n2)cc1)N(C)C` [Example 6-26], the IC50 is reported as less than 100 nM.

Reference: patent US20070032529A1, “Pyrazole compounds and their use as antidiabetes agents” (Japan Tobacco Inc., priority 2005, published 2007)
